Measurements as given in ChEMBL document CHEMBL1138438, “Structural-activity relationship study of highly-functionalized imidazolines as potent inhibitors of nuclear transcription factor-kappaB mediated IL-6 production” (Bioorg Med Chem, 2009).
Activity calls are given as the source filed them. No cut-off for these calls is given here.

Experiments:
[1] = Inhibition of NF-kappaB-mediated gene transcription expressed in TNF-alpha-stimulated human HeLa cells for 30 mins before TNFalpha challenge measured after 8 hrs by steady-glo luciferase reporter gene assay; type: cell-based
[2] = system: Blood; assay: Antiinflammatory activity in human whole blood assessed as inhibition of IL-1-beta-stimulated IL6 production preincubated 2 hrs before IL1-beta challenge measured after 18 hrs by ELISA; type: functional, tissue-based
[3] = system: HeLa; assay: Stimulation of NF-kappaB-mediated gene transcription expressed in human HeLa cells for 30 mins before TNFalpha challenge measured after 8 hrs by steady-glo luciferase reporter gene assay; type: cell-based
[4] = Cytotoxicity against human 184B5 cells after 24 hrs by MTS assay; type: cell-based

Structure (SMILES) | EC50 [1] | IC50 ([2]; read-out: IC50) | IC50 ([2]; read-out: Log IC50 (converted)) | Activity [2] | Activity [3] | CC50 at 24 h [4]
CCOC(=O)[C@]1(c2ccccc2)N=C(c2ccccc2)N[C@@H]1c1ccccc1 (racemic) | 116 µM | > 20 µM | 34.7 µM | Dose-dependent effect | inactive | > 10 µM
CCOC(=O)[C@]1(c2ccccc2)N=C(c2ccccc2)N(C(C)=O)[C@@H]1c1ccccc1 (racemic) | 168 µM | > 20 µM | – | Dose-dependent effect | inactive | > 10 µM
COC(=O)[C@]1(Cc2cc3ccccc3[nH]2)N=C(c2ccccc2)N(Cc2ccccc2)[C@@H]1c1ccccc1 (racemic) | 13 µM | 16.1 µM | 16.2 µM | Dose-dependent effect | inactive | > 10 µM
COC(=O)[C@]1(C)N=C(c2ccccc2)N(Cc2ccccc2)[C@@H]1c1ccccc1 (racemic) | > 20 µM | 3 µM | 2.95 µM | Dose-dependent effect | inactive | > 10 µM
NC(=O)[C@]1(c2ccccc2)N=C(c2ccccc2)N(Cc2ccccc2)[C@@H]1c1ccccc1 (racemic) | > 20 µM | > 20 µM | 46.8 µM | Dose-dependent effect | inactive | > 10 µM
COC(=O)[C@]1(c2ccccc2)N=C(c2ccccc2)N(Cc2ccccc2)[C@@H]1c1ccccc1 (racemic) | 7.5 µM | 3 µM | 3.02 µM | Dose-dependent effect | inactive | > 10 µM
CCOC(=O)[C@]1(c2ccccc2)N=C(c2ccccc2)N(Cc2ccccc2)[C@@H]1c1ccncc1 (racemic) | > 20 µM | 9.4 µM | 9.33 µM | Dose-dependent effect | inactive | > 10 µM
COC(=O)[C@]1(C(C)C)N=C(c2ccccc2)N(Cc2ccccc2)[C@@H]1c1ccccc1 (racemic) | 20 µM | 7.1 µM | 7.08 µM | Dose-dependent effect | inactive | > 10 µM
CCOC(=O)[C@]1(c2ccccc2)N=C(c2ccccc2)N(C(=O)c2ccccc2)[C@@H]1c1ccccc1 (racemic) | 24.9 µM | 6.6 µM | 6.61 µM | Dose-dependent effect | inactive | > 10 µM
CCOC(=O)[C@]1(c2ccccc2)N=C(c2ccccc2)N(Cc2ccccc2)[C@@H]1c1ccc(N)cc1 (racemic) | 10.4 µM | 0.5 µM | 0.457 µM | Dose-dependent effect | inactive | > 10 µM
CCOC(=O)[C@]1(c2ccccc2)N=C(c2ccccc2)N(S(=O)(=O)c2ccc(C)cc2)[C@@H]1c1ccccc1 (racemic) | 36.1 µM | 6.6 µM | 6.61 µM | Dose-dependent effect | inactive | > 10 µM
CCOC(=O)[C@]1(c2ccccc2)N=C(c2ccccc2)N(Cc2ccccc2)[C@@H]1c1ccco1 (racemic) | 7.6 µM | 1.9 µM | 1.91 µM | Dose-dependent effect | inactive | > 10 µM

The next molecules have a lower EC50 [1] than those just listed; values first:

EC50 [1] | IC50 ([2]; read-out: IC50) | IC50 ([2]; read-out: Log IC50 (converted)) | Structure (SMILES) | Activity [2] | Activity [3] | CC50 at 24 h [4]
1.7 µM | 4.6 µM | 4.57 µM | CCOC(=O)[C@]1(c2ccccc2)N=C(c2ccccc2)N(Cc2ccc(C)cc2)[C@@H]1c1ccccc1 (racemic) | Dose-dependent effect | inactive | > 10 µM
1.5 µM | 0.3 µM | 0.0617 µM | CCOC(=O)[C@]1(c2ccccc2)N=C(c2ccccc2)N(Cc2ccccc2)[C@@H]1c1ccc(Cl)cc1 (racemic) | Dose-dependent effect | inactive | > 10 µM
2.7 µM | 0.5 µM | 2 µM | CCOC(=O)[C@]1(c2ccccc2)N=C(c2ccccc2)N(Cc2ccc(Br)cc2)[C@@H]1c1ccccc1 (racemic) | Dose-dependent effect | inactive | > 10 µM
5 µM | 1 µM | 1.05 µM | CCOC(=O)[C@]1(c2ccccc2)N=C(c2ccccc2)N(Cc2ccccc2)[C@@H]1c1ccc(F)cc1 (racemic) | Dose-dependent effect | inactive | > 10 µM
5.2 µM | 1.2 µM | 1.2 µM | CCOC(=O)[C@]1(c2ccccc2)N=C(c2ccccc2)N(Cc2ccc(F)cc2)[C@@H]1c1ccccc1 (racemic) | Dose-dependent effect | inactive | > 10 µM
5.3 µM | 4.1 µM | 4.07 µM | COC(=O)[C@]1(Cc2ccccc2)N=C(c2ccccc2)N(Cc2ccccc2)[C@@H]1c1ccccc1 (racemic) | Dose-dependent effect | inactive | > 10 µM
2.3 µM | 1.9 µM | 1.95 µM | CCCOC(=O)[C@]1(c2ccccc2)N=C(c2ccccc2)N(Cc2ccccc2)[C@@H]1c1ccccc1 (racemic) | Dose-dependent effect | inactive | > 10 µM
3.5 µM | 1.9 µM | 1.95 µM | CC(C)OC(=O)[C@]1(c2ccccc2)N=C(c2ccccc2)N(Cc2ccccc2)[C@@H]1c1ccccc1 (racemic) | Dose-dependent effect | inactive | > 10 µM
3.5 µM | 5.9 µM | 5.89 µM | O=C(OCc1ccccc1)[C@]1(c2ccccc2)N=C(c2ccccc2)N(Cc2ccccc2)[C@@H]1c1ccccc1 (racemic) | Dose-dependent effect | inactive | > 10 µM
4.2 µM | 1.6 µM | 1.58 µM | CCOC(=O)[C@]1(c2ccccc2)N=C(c2ccccc2)N(Cc2ccc(Cl)cc2)[C@@H]1c1ccccc1 (racemic) | Dose-dependent effect | inactive | > 10 µM
3.6 µM | 1.3 µM | 1.29 µM | CCOC(=O)[C@]1(c2ccccc2)N=C(c2ccccc2)N(Cc2ccccc2)[C@@H]1c1ccc(OC)cc1 (racemic) | Dose-dependent effect | inactive | > 10 µM
5.5 µM | 1.3 µM | 1.29 µM | CCOC(=O)[C@]1(c2ccccc2)N=C(c2ccccc2)N(Cc2ccco2)[C@@H]1c1ccccc1 (racemic) | Dose-dependent effect | inactive | > 10 µM
5 µM | 1.4 µM | 1.38 µM | CCOC(=O)[C@]1(c2ccccc2)N=C(c2ccccc2)N(Cc2ccc(OC)cc2)[C@@H]1c1ccccc1 (racemic) | Dose-dependent effect | inactive | > 10 µM
6.7 µM | 1.5 µM | 1.48 µM | CCOC(=O)[C@]1(c2ccccc2)N=C(c2ccccc2)N(Cc2ccc(C(F)(F)F)cc2)[C@@H]1c1ccccc1 (racemic) | Dose-dependent effect | inactive | > 10 µM
1.4 µM | 0.8 µM | 0.851 µM | CCOC(=O)[C@]1(c2ccccc2)N=C(c2ccccc2)N(Cc2ccccc2)[C@@H]1c1ccc(C(F)(F)F)cc1 (racemic) | Dose-dependent effect | inactive | > 10 µM
3.4 µM | 0.5 µM | 0.537 µM | CCOC(=O)[C@]1(c2ccccc2)N=C(c2ccccc2)N(Cc2ccccc2)[C@@H]1c1ccc([N+](=O)[O-])cc1 (racemic) | Dose-dependent effect | inactive | > 10 µM
